Assay results as given in ChEMBL document CHEMBL6074690, “Development and Characterization of a High-Affinity Selective Galectin-3 Mouse Tool Compound in Mouse Models of Cancer” (J Med Chem, 2024).

Columns and labels:
[1] = Apparent permeability across apical to basal side in human Caco-2 cells at 10 uM incubated for 90 mins by LC-MS/MS analysis; format: ADME, cell-based
[2] = Apparent permeability across basal to apical side in human Caco-2 cells at 10 uM incubated for 90 mins by LC-MS/MS analysis; format: ADME, cell-based
[3] = Lipophilicity, log D of compound in potassium phosphate buffer/octanol at pH 7.4 by shake flask method; format: physicochemical
[4] = Intrinsic clearance in human hepatocytes measured per million cells at 2 uM incubated for 15 to 120 mins by LC-MS/MS analysis; format: ADME, cell-based, Hepatocyte; details: time 15-120 min, read-out: CLH
[5] = Intrinsic clearance in mouse hepatocytes measured per million cells at 2 uM incubated for 15 to 120 mins by LC-MS/MS analysis; format: ADME, cell-based, Hepatocyte; details: time 15-120 min, read-out: CLH
[6] = Unbound drug level in C57BL/6 mouse at 30 mg/kg, po measured for 12 hrs; format: ADME, organism-based; details: in vivo

OC[C@H]1O[C@@H](Sc2cncc(Br)c2)[C@H](O)[C@@H](n2cc(-c3cc(F)c(F)c(F)c3)nn2)[C@H]1O
Papp B→A at […], 10 µM [2]: 30 ×10⁻⁶ cm/s
logD [3]: 3
hepatocyte CLint at 2 µM [4]: 0.15 µL/min/1e6 cells
hepatocyte CLint at 2 µM [5]: 1.1 µL/min/1e6 cells

OC[C@H]1O[C@@H](Sc2ccc(Cl)c(Cl)c2)[C@H](O)[C@@H](n2cc(-c3cc(F)c(F)c(F)c3)nn2)[C@H]1O
logD [3]: 4.6
hepatocyte CLint at 2 µM [4]: 0.7 µL/min/1e6 cells
hepatocyte CLint at 2 µM [5]: 0.8 µL/min/1e6 cells

OC[C@H]1O[C@@H](Sc2cncc(Br)c2)[C@H](O)[C@@H](n2cc(-c3cc(F)c(Cl)c(F)c3)nn2)[C@H]1O
Papp B→A at […], 10 µM [2]: 17 ×10⁻⁶ cm/s
logD [3]: > 4
hepatocyte CLint at 2 µM [5]: 0.6 µL/min/1e6 cells
Drug uptake(free) [6]: Active
